In US10844067B2, “Heterocyclic compounds as RET kinase inhibitors” (Cancer Research Technology Limited, priority 2016, dated 2020):
Read-outs that look alike come from different tables or passages of the source. Blank lines part the entries; values can stand above or below the compound they belong to.

How the values were obtained:
RET = RET (Homo sapiens (Human), UniProt P07949); test: RET enzyme assay (CisBio HTRF kinEASE); assay type: biochemical; details: for IC50: ATP at Km
KDR = KDR (Homo sapiens (Human), UniProt P35968); test: KDR enzyme assay (CisBio HTRF kinEASE); assay type: biochemical; details: ATP at Km
[1] = test system: BaF3 cell lines expressing KDR; test: BaF3 cell assay, KDR (CellTiter-Glo viability); assay type: cell-based; details: Mus musculus, BaF3 cells expressing KDR, 48 hours
Procedure: (§1) The system originally developed by Daley and Baltimore^16 was used, whereby IL3-dependent BaF3 cells are modified to express an activated recombinant kinase. Following removal of IL3, the modified cells are dependent on the activity of the recombinant kinase for survival and proliferation. […] Following incubation of the cells for 48 hours at 37° C. in a humidified 5% CO2 atmosphere, viability was determined by addition of 10 μL CellTiter-Glo reagent (Promega) and measurement of luminescence.

[2] = biological target: BaF3 cell lines expressing KIF5B-RET (Homo sapiens, UniProt P07949); assay type: cell-based; details: read-out: RET Cell IC50
Procedure: as §1

RET^V804M = RET^V804M (Homo sapiens (Human), UniProt P07949, V804M); test: RET^V804M enzyme assay; assay type: biochemical
[3] = test system: Non-modified BaF3 cells (WT); test: BaF3 cell assay, non-modified (WT) cells with IL3; details: Mus musculus, BaF3, 48 h, read-out: BaF3 IC50
Procedure: as §1

RET^V804M Cell = test: BaF3 cell assay, RET^V804M (CellTiter-Glo viability); assay type: cell-based; details: Mus musculus, RET^V804M cells, 48 hours
Procedure: as §1

Sequence of KDR (P35968 20-1356): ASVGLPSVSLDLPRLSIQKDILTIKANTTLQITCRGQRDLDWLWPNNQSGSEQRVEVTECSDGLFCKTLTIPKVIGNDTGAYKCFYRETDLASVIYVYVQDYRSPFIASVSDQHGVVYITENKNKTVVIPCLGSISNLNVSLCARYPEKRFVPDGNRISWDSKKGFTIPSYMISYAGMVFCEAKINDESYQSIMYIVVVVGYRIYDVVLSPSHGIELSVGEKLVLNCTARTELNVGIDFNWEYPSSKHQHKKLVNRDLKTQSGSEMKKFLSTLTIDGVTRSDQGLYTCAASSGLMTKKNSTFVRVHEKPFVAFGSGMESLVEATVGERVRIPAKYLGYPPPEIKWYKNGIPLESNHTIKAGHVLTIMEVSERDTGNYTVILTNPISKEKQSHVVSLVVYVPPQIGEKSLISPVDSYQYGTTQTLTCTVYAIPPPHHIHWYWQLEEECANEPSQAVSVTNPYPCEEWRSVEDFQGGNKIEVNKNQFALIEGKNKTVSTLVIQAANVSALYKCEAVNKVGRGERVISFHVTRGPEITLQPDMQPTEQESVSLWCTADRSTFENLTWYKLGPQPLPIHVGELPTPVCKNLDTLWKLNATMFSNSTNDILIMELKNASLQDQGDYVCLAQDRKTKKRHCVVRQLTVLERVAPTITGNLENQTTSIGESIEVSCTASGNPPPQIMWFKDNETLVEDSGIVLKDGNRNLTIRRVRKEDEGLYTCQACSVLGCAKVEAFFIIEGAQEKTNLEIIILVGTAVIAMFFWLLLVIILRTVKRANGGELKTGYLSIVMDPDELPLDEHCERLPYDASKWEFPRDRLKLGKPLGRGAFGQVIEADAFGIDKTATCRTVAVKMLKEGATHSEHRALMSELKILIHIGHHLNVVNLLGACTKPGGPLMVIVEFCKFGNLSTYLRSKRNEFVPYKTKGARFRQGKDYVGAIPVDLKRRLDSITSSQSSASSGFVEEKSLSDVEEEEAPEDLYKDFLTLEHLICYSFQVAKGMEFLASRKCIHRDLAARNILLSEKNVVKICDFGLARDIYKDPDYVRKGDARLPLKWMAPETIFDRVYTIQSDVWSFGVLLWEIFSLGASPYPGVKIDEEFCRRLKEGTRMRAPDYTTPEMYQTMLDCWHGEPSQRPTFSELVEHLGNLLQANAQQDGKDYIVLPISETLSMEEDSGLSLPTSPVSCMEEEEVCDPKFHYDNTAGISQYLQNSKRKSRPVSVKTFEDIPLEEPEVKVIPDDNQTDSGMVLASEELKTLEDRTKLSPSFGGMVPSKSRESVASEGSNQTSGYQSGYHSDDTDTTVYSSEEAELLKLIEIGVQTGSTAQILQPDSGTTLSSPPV
Sequence of RET^V804M (P07949 29-1114 V804M): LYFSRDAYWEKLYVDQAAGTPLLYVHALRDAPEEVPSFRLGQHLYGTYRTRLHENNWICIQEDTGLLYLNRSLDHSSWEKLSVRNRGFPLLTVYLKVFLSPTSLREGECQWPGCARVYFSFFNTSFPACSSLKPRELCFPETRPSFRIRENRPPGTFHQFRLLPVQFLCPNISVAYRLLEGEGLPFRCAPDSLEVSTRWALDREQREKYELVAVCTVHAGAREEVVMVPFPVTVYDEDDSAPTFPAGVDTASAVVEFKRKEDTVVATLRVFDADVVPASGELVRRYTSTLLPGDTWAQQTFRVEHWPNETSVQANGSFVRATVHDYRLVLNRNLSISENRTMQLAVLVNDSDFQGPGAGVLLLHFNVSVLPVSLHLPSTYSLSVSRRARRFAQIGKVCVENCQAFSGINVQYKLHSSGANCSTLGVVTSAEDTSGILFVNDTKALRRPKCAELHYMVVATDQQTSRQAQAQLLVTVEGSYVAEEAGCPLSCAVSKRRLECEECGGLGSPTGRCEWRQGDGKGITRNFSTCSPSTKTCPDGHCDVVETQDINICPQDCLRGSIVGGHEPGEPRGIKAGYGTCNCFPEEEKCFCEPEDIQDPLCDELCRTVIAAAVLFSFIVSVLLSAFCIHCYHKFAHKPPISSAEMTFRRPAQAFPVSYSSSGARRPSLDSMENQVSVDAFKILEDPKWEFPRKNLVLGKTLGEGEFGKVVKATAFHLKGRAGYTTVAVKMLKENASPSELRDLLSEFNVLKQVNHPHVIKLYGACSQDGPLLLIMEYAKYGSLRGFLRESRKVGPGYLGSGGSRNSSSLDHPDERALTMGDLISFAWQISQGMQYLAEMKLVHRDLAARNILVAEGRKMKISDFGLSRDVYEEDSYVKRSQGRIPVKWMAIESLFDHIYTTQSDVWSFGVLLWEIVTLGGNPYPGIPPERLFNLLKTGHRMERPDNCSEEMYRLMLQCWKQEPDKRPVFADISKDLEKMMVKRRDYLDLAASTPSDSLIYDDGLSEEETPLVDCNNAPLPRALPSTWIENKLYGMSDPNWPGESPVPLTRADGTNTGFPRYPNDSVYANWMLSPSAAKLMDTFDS
Sequence of BaF3 cell lines expressing KIF5B-RET (P07949 29-1114 limits assumed, stated change not applied): as the sequence (P07949 29-1114 V804M) above, with M776V counted along it
Sequence of RET (P07949 29-1114): as the sequence (P07949 29-1114 V804M) above, with M776V counted along it

- desired activity in the assays described in the Examples section (RET): did not exhibit the desired activity
SMILES: CC(C)(C)n1nc(-c2cc3ncccc3[nH]2)c2c(N)ncnc21 [1-tert-butyl-3-(1H-pyrrolo[3,2-b]pyridin-2-yl)pyrazolo[3,4-d]pyrimidin-4-amine]

- desired activity in the assays described in the Examples section (RET): did not exhibit the desired activity
SMILES: Nc1ncnc2c1c(-c1[nH]c3ncccc3c1Cl)nn2CC(=O)O [2-(4-amino-3-(3-chloro-1H-pyrrolo[2,3-b]pyridin-2-yl)-1H-pyrazolo[3,4-d]pyrimidin-1-yl)acetic acid]

- desired activity in the assays described in the Examples section (RET): did not exhibit the desired activity
SMILES: CC(C)CCn1nc(-c2[nH]c3ccccc3c2Cl)c2c(N)ncnc21 [3-(3-Chloro-1H-indol-2-yl)-1-isopentyl-1H-pyrazolo[3,4-d]pyrimidin-4-amine]

- desired activity in the assays described in the Examples section (RET): did not exhibit the desired activity
SMILES: Nc1ncnc2c1c(-c1[nH]c3ccccc3c1Cl)nn2CC1CCNC1 (centres unmarked) [3-(3-chloro-1H-indol-2-yl)-1-(pyrrolidin-3-ylmethyl)-1H-pyrazolo[3,4-d]pyrimidin-4-amine]

SMILES: CS(=O)(=O)N1CCC(n2nc(-c3[nH]c4ccccc4c3Cl)c3c(N)ncnc32)CC1 [Example 4, 3-(3-Chloro-1H-indol-2-yl)-1-(1-methylsulfonyl-4-piperidyl)pyrazolo[3,4-d]pyrimidin-4-amine]
- IC50 (KDR): > 30000 nM

- IC50 (KDR): > 30000 nM
SMILES: CC(C)(C)OC(=O)N[C@H]1CC[C@@H](n2nc(-c3cc4cccnc4[nH]3)c3c(N)ncnc32)CC1 [Example 27, tert-Butyl N-[cis-4-(4-amino-3-{1H-pyrrolo[2,3-b]pyridin-2-yl}-1H-pyrazolo[3,4-d]pyrimidin-1-yl)cyclohexyl]carbamate]

SMILES: CC(C)(C)OC(=O)N[C@H]1CC[C@H](n2nc(-c3cc4cccnc4[nH]3)c3c(N)ncnc32)CC1 [Example 28, tert-Butyl (trans-4-(4-amino-3-(1H-pyrrolo[2,3-b]pyridin-2-yl)-1H-pyrazolo[3,4-d]pyrimidin-1-yl)cyclohexyl)carbamate]
- IC50 (KDR): > 30000 nM

SMILES: Nc1ncnc2c1c(-c1cc3cccnc3[nH]1)nn2[C@H]1CC[C@H](NC(=O)C2CC2)CC1 [Example 36, N-(trans-4-(4-Amino-3-(1H-pyrrolo[2,3-b]pyridin-2-yl)-1H-pyrazolo[3,4-d]pyrimidin-1-yl)cyclohexyl)cyclopropanecarboxamide]
- IC50 (KDR): > 30000 nM

SMILES: CC(C)n1nc(-c2cc3ccccc3[nH]2)c2c(N)ncnc21 [Example 44, 3-(1H-Indol-2-yl)-1-isopropyl-pyrazolo[3,4-d]pyrimidin-4-amine]
- IC50 [1]: 2770 nM
- IC50 ([2]; BaF3 cells expressing KIF5B-RET, 48 hours, CellTiter-Glo): 83.6 nM
- IC50 (RET^V804M): 1870 nM
- IC50 (KDR): 4570 nM
- IC50 [3]: 3630 nM
- IC50 (RET): 18.7 nM
- IC50 (RET^V804M Cell): 1470 nM

SMILES: Cn1nc(-c2[nH]c3ncccc3c2Cl)c2c(N)ncnc21 [Example 65, 3-(3-Chloro-1H-pyrrolo[2,3-b]pyridin-2-yl)-1-methyl-pyrazolo[3,4-d]pyrimidin-4-amine]
- IC50 [2]: 1010 nM
- IC50 (RET^V804M): > 30000 nM
- desired activity in the assays described in the Examples section (RET): did not exhibit the desired activity
- IC50 (RET): > 30000 nM

SMILES: Nc1ncnc2c1c(-c1[nH]c3ncccc3c1Cl)nn2C1CCCCC1 [Example 67, 3-(3-Chloro-1H-pyrrolo[2,3-b]pyridin-2-yl)-1-cyclohexyl-pyrazolo[3,4-d]pyrimidin-4-amine]
- IC50 [2]: 68.7 nM
- IC50 (RET^V804M): > 30000 nM
- IC50 (RET): > 30000 nM

SMILES: CN(C)C1CCN(CCn2nc(-c3[nH]c4ncccc4c3Cl)c3c(N)ncnc32)CC1 [Example 77, 3-(3-Chloro-1H-pyrrolo[2,3-b]pyridin-2-yl)-1-(2-(4-(dimethylamino)piperidin-1-yl)ethyl)-1H-pyrazolo[3,4-d]pyrimidin-4-amine]
- IC50 (KDR): > 30000 nM
